For test [1], the target named is T1, Deoxyribonuclease-1 (Homo sapiens, UniProt P24855).
T1 sequence (P24855 whole entry): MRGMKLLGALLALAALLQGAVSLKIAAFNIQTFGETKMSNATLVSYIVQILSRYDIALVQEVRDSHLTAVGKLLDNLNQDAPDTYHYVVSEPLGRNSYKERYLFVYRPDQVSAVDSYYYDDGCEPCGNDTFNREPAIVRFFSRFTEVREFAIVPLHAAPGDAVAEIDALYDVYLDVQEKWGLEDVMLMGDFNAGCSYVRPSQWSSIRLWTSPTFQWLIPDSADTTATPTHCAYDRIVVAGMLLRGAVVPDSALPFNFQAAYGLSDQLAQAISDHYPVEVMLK
The experiment in a line: Inhibition of DNase 1 (unknown origin).

Test [2] addresses T1, Deoxyribonuclease-1. Put plainly: Inhibition of DNase 1 (unknown origin) using (FAM)-labeled dsDNA as substrate.

For the compound `O=C(O)c1ccc(Nc2nc(Cl)nc(Cl)n2)cc1-c1c2ccc(=O)cc-2oc2cc(O)ccc12`, the IC50 against Deoxyribonuclease-1 [1] is over 300 µM.

With `CN(C)c1ccc(C(=C2C=CC(=[N+](C)C)C=C2)c2ccc(N(C)C)cc2)cc1` [GENTIAN VIOLET], the IC50 at Deoxyribonuclease-1 [2] is 350 nM.

The IC50 is the concentration at which inhibition is half-maximal. A lower IC50 goes with inhibition by little substance.

(Values after ChEMBL document CHEMBL3352007, “Deoxyribonuclease inhibitors” (Eur J Med Chem, 2014).)
